From ChEMBL document CHEMBL5537201, “Discovery of Unique Bis-Substituted Aromatic Amide Derivatives as Novel Highly Potent Antibiotics for Combating Methicillin-Resistant Staphylococcus aureus (MRSA)” (J Med Chem, 2024)
Values after ≈ are worked out from the molar mass of the structure shown. Active and inactive are the calls of the source. No cut-off for these calls is given here.

Experiments:
Staphylococcus aureus [1] = test: Antimicrobial activity against Staphylococcus aureus N315 assessed as reduction in bacterial growth incubated for 24 hrs by two-fold broth dilution method; type: functional
Staphylococcus aureus [2] = test: Antimicrobial activity against Staphylococcus aureus ATCC6538 assessed as reduction in bacterial growth incubated for 24 hrs by two-fold broth dilution method; type: functional
Staphylococcus aureus [3] = test: Antimicrobial activity against methicillin resistant Staphylococcus aureus clinical isolate MRS273 assessed as reduction in bacterial growth incubated for 24 hrs by two-fold broth dilution method; type: functional
Staphylococcus aureus [4] = test: Antimicrobial activity against methicillin resistant Staphylococcus aureus clinical isolate MRS200 assessed as reduction in bacterial growth incubated for 24 hrs by two-fold broth dilution method; type: functional
HeLa = test: Cytotoxicity against human HeLa cells assessed as reduction in cell viability measured after 24 hrs by CCK-8 method; type: functional, cell-based
Staphylococcus aureus [5] = test: Induction of drug resistance in Staphylococcus aureus ATCC6538 assessed as change in MIC measured after 10 passages; type: functional
[6] = Hemolytic activity in rabbit Red blood cell assessed as hemolysis incubated for 1 hr by two-fold microdilution method; type: toxicity, cell-based, Oryctolagus cuniculus, Erythrocyte; conditions: red blood cells (erythrocytes)
Staphylococcus aureus [7] = test: Antimicrobial activity against methicillin resistant Staphylococcus aureus clinical isolate MRS97 assessed as reduction in bacterial growth incubated for 24 hrs by two-fold broth dilution method; type: functional
Staphylococcus aureus [8] = test: Antimicrobial activity against methicillin resistant Staphylococcus aureus clinical isolate MRS1 assessed as reduction in bacterial growth incubated for 24 hrs by two-fold broth dilution method; type: functional
Staphylococcus aureus [9] = test: Antimicrobial activity against methicillin resistant Staphylococcus aureus clinical isolate MRS84 assessed as reduction in bacterial growth incubated for 24 hrs by two-fold broth dilution method; type: functional
[10] = Selectivity index, ratio of HC50 for rabbit Red blood cell to MIC for Staphylococcus aureus ATCC6538; type: toxicity; conditions: red blood cells (erythrocytes), read-out: Selectivity Index
[11] = Selectivity index, ratio of IC50 for African green monkey Vero E6 cells to MIC for Staphylococcus aureus ATCC6538; type: toxicity; conditions: read-out: Selectivity Index
Staphylococcus aureus [12] = test: Antimicrobial activity against methicillin resistant Staphylococcus aureus clinical isolate MRS70 assessed as reduction in bacterial growth incubated for 24 hrs by two-fold broth dilution method; type: functional
Streptomyces albus = test: Antimicrobial activity against Streptomyces albus SHBC D11158 assessed as reduction in bacterial growth incubated for 24 hrs by two-fold broth dilution method; type: functional
[13] = Cytotoxicity against African green monkey Vero E6 cells assessed as reduction in cell viability measured after 24 hrs by CCK-8 method; type: toxicity, cell-based, Chlorocebus sabaeus, Vero C1008
[14] = Cytotoxicity against human HaCaT cells assessed as reduction in cell viability measured after 24 hrs by CCK-8 method; type: toxicity, cell-based
Staphylococcus aureus [15] = test: Antimicrobial activity against methicillin resistant Staphylococcus aureus clinical isolate MRS108 assessed as reduction in bacterial growth incubated for 24 hrs by two-fold broth dilution method; type: functional
A549 = test: Cytotoxicity against human A549 cells assessed as reduction in cell viability measured after 24 hrs by CCK-8 method; type: functional, cell-based; conditions: A549, 24 h
Staphylococcus aureus [16] = test: Antimicrobial activity against methicillin resistant Staphylococcus aureus clinical isolate MRS121 assessed as reduction in bacterial growth incubated for 24 hrs by two-fold broth dilution method; type: functional
Staphylococcus aureus [17] = test: Antimicrobial activity against methicillin resistant Staphylococcus aureus clinical isolate MRS23 assessed as reduction in bacterial growth incubated for 24 hrs by two-fold broth dilution method; type: functional
Staphylococcus aureus [18] = test: Antimicrobial activity against methicillin resistant Staphylococcus aureus clinical isolate MRS207 assessed as reduction in bacterial growth incubated for 24 hrs by two-fold broth dilution method; type: functional
Staphylococcus hominis = test: Antimicrobial activity against methicillin-resistant Staphylococcus hominis assessed as reduction in bacterial growth incubated for 24 hrs by two-fold broth dilution method; type: functional
[19] = Cytotoxicity against HEK293 cells assessed as reduction in cell viability measured after 24 hrs by CCK-8 method; type: toxicity, cell-based; conditions: human
Staphylococcus aureus [20] = test: Antimicrobial activity against methicillin resistant Staphylococcus aureus clinical isolate MRS153 assessed as reduction in bacterial growth incubated for 24 hrs by two-fold broth dilution method; type: functional
Staphylococcus aureus [21] = test: Antimicrobial activity against methicillin resistant Staphylococcus aureus clinical isolate MRS152 assessed as reduction in bacterial growth incubated for 24 hrs by two-fold broth dilution method; type: functional

CCCC(=O)N(Cc1cc2ccccc2s1)c1ccc2ccccc2c1O
MIC (Staphylococcus aureus [1]): > 250 µg/mL | MIC (Staphylococcus aureus [2]): > 250 µg/mL

CCCCCC(=O)N(Cc1cc2ccccc2s1)c1ccc2ccccc2c1O
MIC (Staphylococcus aureus [1]): > 250 µg/mL | MIC (Staphylococcus aureus [2]): > 250 µg/mL

C=CCCC(=O)N(Cc1cc2ccccc2s1)c1ccc2ccccc2c1O
MIC (Staphylococcus aureus [1]): > 250 µg/mL | MIC (Staphylococcus aureus [2]): > 250 µg/mL

CCCCC(=O)N(Cc1ccc2c(c1)CCO2)c1ccc2ccccc2c1O
MIC (Staphylococcus aureus [1]): 62.5 µg/mL (≈ 166 µM) | MIC (Staphylococcus aureus [2]): 62.5 µg/mL (≈ 166 µM)

O=C(CCC(F)(F)F)N(Cc1cc2ccccc2s1)c1ccc(-c2ccccc2)c(O)c1
MIC (Staphylococcus aureus [1]): > 16 µg/mL | MIC (Staphylococcus aureus [2]): 2 µg/mL (≈ 4.39 µM)

O=C(CCC(F)(F)F)N(Cc1cc2ccccc2s1)c1cc(-c2ccccc2C(F)(F)F)ccc1O
MIC (Staphylococcus aureus [1]): > 16 µg/mL | MIC (Staphylococcus aureus [2]): > 16 µg/mL

CCCCC(=O)N(Cc1ccc2c(c1)OCCO2)c1ccc2ccccc2c1O
MIC (Staphylococcus aureus [1]): 62.5 µg/mL (≈ 160 µM) | MIC (Staphylococcus aureus [2]): 31.2 µg/mL (≈ 79.8 µM)

O=C(CCC(F)(F)F)N(Cc1cc2ccccc2s1)c1cc(-c2ccc(C(F)(F)F)cc2)ccc1O
MIC (Staphylococcus aureus [3]): 6 µg/mL (≈ 11.5 µM) | MIC (Staphylococcus aureus [4]): 16 µg/mL (≈ 30.6 µM) | IC50 (HeLa): 5 µg/mL (≈ 9.55 µM) | MIC (Staphylococcus aureus [1]): 2 µg/mL (≈ 3.82 µM) | Activity (Staphylococcus aureus [5]): inactive | HC50 at 1 h [6]: 5570 µg/mL | MIC (Staphylococcus aureus [7]): 3 µg/mL (≈ 5.73 µM) | MIC (Staphylococcus aureus [8]): 16 µg/mL (≈ 30.6 µM) | MIC (Staphylococcus aureus [9]): 6 µg/mL (≈ 11.5 µM) | selectivity ratio [10]: > 1000 | selectivity ratio [11]: 11 | MIC (Staphylococcus aureus [12]): 6 µg/mL (≈ 11.5 µM) | MIC (Streptomyces albus): 8 µg/mL (≈ 15.3 µM) | IC50 at 24 h [13]: 5.55 µg/mL (≈ 10.6 µM) | MIC (Staphylococcus aureus [2]): 0.5 µg/mL (≈ 0.955 µM) | IC50 at 24 h [14]: 3.92 µg/mL (≈ 7.49 µM) | MIC (Staphylococcus aureus [15]): 16 µg/mL (≈ 30.6 µM) | IC50 (A549): 3.61 µg/mL (≈ 6.9 µM) | MIC (Staphylococcus aureus [16]): 6 µg/mL (≈ 11.5 µM) | MIC (Staphylococcus aureus [17]): 16 µg/mL (≈ 30.6 µM) | MIC (Staphylococcus aureus [18]): 16 µg/mL (≈ 30.6 µM) | MIC (Staphylococcus hominis): 8 µg/mL (≈ 15.3 µM) | IC50 at 24 h [19]: 2.79 µg/mL (≈ 5.33 µM) | MIC (Staphylococcus aureus [20]): 6 µg/mL (≈ 11.5 µM) | MIC (Staphylococcus aureus [21]): 6 µg/mL (≈ 11.5 µM)

O=C(CCC(F)(F)F)N(Cc1cc2ccccc2s1)c1cc(-c2ccncc2)ccc1O
MIC (Staphylococcus aureus [1]): > 16 µg/mL | MIC (Staphylococcus aureus [2]): > 16 µg/mL

O=C(CCC(F)(F)F)N(Cc1cc2ccccc2s1)c1c(O)cccc1-c1ccccc1
MIC (Staphylococcus aureus [1]): 6 µg/mL (≈ 13.2 µM) | MIC (Staphylococcus aureus [2]): 2 µg/mL (≈ 4.39 µM)

COc1ccc(-c2ccc(O)c(N(Cc3cc4ccccc4s3)C(=O)CCC(F)(F)F)c2)cc1
MIC (Staphylococcus aureus [3]): 16 µg/mL (≈ 33 µM) | MIC (Staphylococcus aureus [4]): 16 µg/mL (≈ 33 µM) | MIC (Staphylococcus aureus [1]): 1 µg/mL (≈ 2.06 µM) | MIC (Staphylococcus aureus [7]): 16 µg/mL (≈ 33 µM) | MIC (Staphylococcus aureus [8]): > 16 µg/mL | MIC (Staphylococcus aureus [9]): > 16 µg/mL | MIC (Staphylococcus aureus [12]): > 16 µg/mL | MIC (Streptomyces albus): > 32 µg/mL | MIC (Staphylococcus aureus [2]): 1 µg/mL (≈ 2.06 µM) | MIC (Staphylococcus aureus [15]): > 16 µg/mL | MIC (Staphylococcus aureus [16]): 16 µg/mL (≈ 33 µM) | MIC (Staphylococcus aureus [17]): > 16 µg/mL | MIC (Staphylococcus aureus [18]): > 16 µg/mL | MIC (Staphylococcus hominis): > 32 µg/mL | MIC (Staphylococcus aureus [20]): 16 µg/mL (≈ 33 µM) | MIC (Staphylococcus aureus [21]): > 16 µg/mL

O=C(CCC(F)(F)F)N(Cc1cc2ccccc2s1)c1cc(-c2ccc(Cl)cc2)ccc1O
MIC (Staphylococcus aureus [3]): 16 µg/mL (≈ 32.7 µM) | MIC (Staphylococcus aureus [4]): 16 µg/mL (≈ 32.7 µM) | IC50 (HeLa): 22.8 µg/mL (≈ 46.6 µM) | MIC (Staphylococcus aureus [1]): 1 µg/mL (≈ 2.04 µM) | Activity (Staphylococcus aureus [5]): Active | HC50 at 1 h [6]: 1920 µg/mL | MIC (Staphylococcus aureus [7]): 3 µg/mL (≈ 6.12 µM) | MIC (Staphylococcus aureus [8]): 6 µg/mL (≈ 12.2 µM) | MIC (Staphylococcus aureus [9]): 3 µg/mL (≈ 6.12 µM) | selectivity ratio [10]: > 1000 | selectivity ratio [11]: 21 | MIC (Staphylococcus aureus [12]): 6 µg/mL (≈ 12.2 µM) | MIC (Streptomyces albus): 4 µg/mL (≈ 8.16 µM) | IC50 at 24 h [13]: 21.5 µg/mL (≈ 43.8 µM) | MIC (Staphylococcus aureus [2]): 1 µg/mL (≈ 2.04 µM) | IC50 at 24 h [14]: 13.8 µg/mL (≈ 28.2 µM) | MIC (Staphylococcus aureus [15]): 6 µg/mL (≈ 12.2 µM) | IC50 (A549): 16.2 µg/mL (≈ 33.1 µM) | MIC (Staphylococcus aureus [16]): 3 µg/mL (≈ 6.12 µM) | MIC (Staphylococcus aureus [17]): 16 µg/mL (≈ 32.7 µM) | MIC (Staphylococcus aureus [18]): 16 µg/mL (≈ 32.7 µM) | MIC (Staphylococcus hominis): 4 µg/mL (≈ 8.16 µM) | IC50 at 24 h [19]: > 25 µg/mL | MIC (Staphylococcus aureus [20]): 6 µg/mL (≈ 12.2 µM) | MIC (Staphylococcus aureus [21]): 6 µg/mL (≈ 12.2 µM)

CCCCC(=O)N(Cc1cc2ccccc2s1)c1ccc2ccccc2c1O
MIC (Staphylococcus aureus [1]): 15.6 µg/mL (≈ 40.1 µM) | MIC (Staphylococcus aureus [2]): 15.6 µg/mL (≈ 40.1 µM)

COc1cc(-c2ccccc2)ccc1N(Cc1cc2ccccc2s1)C(=O)CCC(F)(F)F
MIC (Staphylococcus aureus [1]): > 16 µg/mL | MIC (Staphylococcus aureus [2]): > 16 µg/mL

COc1cccc(-c2ccc(O)c(N(Cc3cc4ccccc4s3)C(=O)CCC(F)(F)F)c2)c1
MIC (Staphylococcus aureus [3]): 16 µg/mL (≈ 33 µM) | MIC (Staphylococcus aureus [4]): > 16 µg/mL | MIC (Staphylococcus aureus [1]): 1 µg/mL (≈ 2.06 µM) | MIC (Staphylococcus aureus [7]): 6 µg/mL (≈ 12.4 µM) | MIC (Staphylococcus aureus [8]): > 16 µg/mL | MIC (Staphylococcus aureus [9]): 16 µg/mL (≈ 33 µM) | MIC (Staphylococcus aureus [12]): > 16 µg/mL | MIC (Streptomyces albus): > 32 µg/mL | MIC (Staphylococcus aureus [2]): 1 µg/mL (≈ 2.06 µM) | MIC (Staphylococcus aureus [15]): 6 µg/mL (≈ 12.4 µM) | MIC (Staphylococcus aureus [16]): > 16 µg/mL | MIC (Staphylococcus aureus [17]): 6 µg/mL (≈ 12.4 µM) | MIC (Staphylococcus aureus [18]): > 16 µg/mL | MIC (Staphylococcus hominis): > 32 µg/mL | MIC (Staphylococcus aureus [20]): > 16 µg/mL | MIC (Staphylococcus aureus [21]): > 16 µg/mL
